System: 324938-238-R-J1-PDC complex spheroid viability
Assay: Anticancer human tumor 324938-238-R-J1-PDC patient-derived bladder carcinoma cell line growth inhibition
Details: for IC50: curve of first compound; for viability, T/C: stronger effect = lower value; active = viability on the fitted dose curve at most 10% of control; inactive = the rest
Outline: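 Complex spheroids of tumor cells with HUVEC and human MSCs, exposed to iadademstat combined with other agents. Each agent tested in half-log steps from near clinical Cmax (else 10 microM top), DMSO ≤0.25%.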

[1] = second compound 0.1 µM, first compound 0.00316 µM
[2] = second compound 0.1 µM, first compound 0.01 µM
[3] = second compound 0.1 µM, first compound 0.0316 µM
[4] = second compound 0.1 µM, first compound 0.1 µM
[5] = second compound 0.316 µM, first compound 0.00316 µM
[6] = second compound 0.316 µM, first compound 0.01 µM
[7] = second compound 0.316 µM, first compound 0.0316 µM
[8] = second compound 0.316 µM, first compound 0.1 µM
[9] = second compound 1 µM, first compound 0.00316 µM
[10] = second compound 1 µM, first compound 0.01 µM
[11] = second compound 1 µM, first compound 0.0316 µM
[12] = second compound 1 µM, first compound 0.1 µM
[13] = second compound 3.16 µM, first compound 0.00316 µM
[14] = second compound 3.16 µM, first compound 0.01 µM
[15] = second compound 3.16 µM, first compound 0.0316 µM
[16] = second compound 3.16 µM, first compound 0.1 µM
[17] = second compound 10 µM, first compound 0.00316 µM
[18] = second compound 10 µM, first compound 0.01 µM
[19] = second compound 10 µM, first compound 0.0316 µM
[20] = second compound 10 µM, first compound 0.1 µM
[21] = second compound 0.1 µM, first compound 0.00949 µM
[22] = second compound 0.1 µM, first compound 0.03 µM
[23] = second compound 0.1 µM, first compound 0.0949 µM
[24] = second compound 0.1 µM, first compound 0.3 µM
[25] = second compound 0.1 µM, first compound 0.949 µM
[26] = second compound 0.1 µM, first compound 3 µM
[27] = second compound 0.316 µM, first compound 0.00949 µM
[28] = second compound 0.316 µM, first compound 0.03 µM
[29] = second compound 0.316 µM, first compound 0.0949 µM
[30] = second compound 0.316 µM, first compound 0.3 µM
[31] = second compound 0.316 µM, first compound 0.949 µM
[32] = second compound 0.316 µM, first compound 3 µM
[33] = second compound 1 µM, first compound 0.00949 µM
[34] = second compound 1 µM, first compound 0.03 µM
[35] = second compound 1 µM, first compound 0.0949 µM
[36] = second compound 1 µM, first compound 0.3 µM
[37] = second compound 1 µM, first compound 0.949 µM
[38] = second compound 1 µM, first compound 3 µM
[39] = second compound 3.16 µM, first compound 0.00949 µM
[40] = second compound 3.16 µM, first compound 0.03 µM
[41] = second compound 3.16 µM, first compound 0.0949 µM
[42] = second compound 3.16 µM, first compound 0.3 µM
[43] = second compound 3.16 µM, first compound 0.949 µM
[44] = second compound 3.16 µM, first compound 3 µM
[45] = second compound 10 µM, first compound 0.00949 µM
[46] = second compound 10 µM, first compound 0.03 µM
[47] = second compound 10 µM, first compound 0.0949 µM
[48] = second compound 10 µM, first compound 0.3 µM
[49] = second compound 10 µM, first compound 0.949 µM
[50] = second compound 10 µM, first compound 3 µM
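Also: spheroids also contain HUVEC and human MSCs and agents combined with iadademstat; spheroids exposed to agents for 7 days before readout.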

COc1cc(Nc2ncc3c(n2)-c2ccc(Cl)cc2C(c2c(F)cccc2OC)=NC3)ccc1C(=O)O + NC1CC1c1ccc(-c2cccc(O)c2)cc1
10.7 nM: IC50 (second compound 0.1 µM)
11.9 nM: IC50 (second compound 1 µM)
9.45 nM: IC50 (second compound 0.316 µM)
10.8 nM: IC50 (second compound 10 µM)
inactive: viability, T/C [1] 76.1% | viability, T/C [2] 51% | viability, T/C [3] 28.1% | viability, T/C [4] 13.9% | viability, T/C (second compound 0.1 µM, first compound 0.316 µM) 18.2% | viability, T/C (second compound 0.1 µM, first compound 1 µM) 13.9% | viability, T/C [5] 69.5% | viability, T/C [6] 48.3% | viability, T/C [7] 30% | viability, T/C [8] 16% | viability, T/C (second compound 0.316 µM, first compound 0.316 µM) 15.8% | viability, T/C (second compound 0.316 µM, first compound 1 µM) 14.8% | viability, T/C [9] 63% | viability, T/C [10] 54.3% | viability, T/C [11] 26.2% | viability, T/C [12] 16.5% | viability, T/C (second compound 1 µM, first compound 0.316 µM) 17.6% | viability, T/C (second compound 1 µM, first compound 1 µM) 15.1% | viability, T/C [13] 62.6% | viability, T/C [14] 57.6% | viability, T/C [15] 30% | viability, T/C [16] 18.1% | viability, T/C (second compound 3.16 µM, first compound 0.316 µM) 18.8% | viability, T/C (second compound 3.16 µM, first compound 1 µM) 16.5% | viability, T/C [17] 57.4% | viability, T/C [18] 51.2% | viability, T/C [19] 29.5% | viability, T/C [20] 19.4% | viability, T/C (second compound 10 µM, first compound 0.316 µM) 19.7% | viability, T/C (second compound 10 µM, first compound 1 µM) 25.8%
13.7 nM: IC50 (second compound 3.16 µM)

Cn1ncnc1C1c2n[nH]c(=O)c3cc(F)cc(c23)NC1c1ccc(F)cc1 (stereo not given) + NC1CC1c1ccc(-c2cccc(O)c2)cc1
46.1 nM: IC50 (second compound 1 µM)
59.6 nM: IC50 (second compound 3.16 µM)
inactive: viability, T/C (second compound 0.1 µM, first compound 0.000316 µM) 82.2% | viability, T/C (second compound 0.1 µM, first compound 0.001 µM) 91% | viability, T/C [1] 78.1% | viability, T/C [2] 76.7% | viability, T/C [3] 50.8% | viability, T/C [4] 43.1% | viability, T/C (second compound 0.316 µM, first compound 0.000316 µM) 88.3% | viability, T/C (second compound 0.316 µM, first compound 0.001 µM) 65.7% | viability, T/C [5] 69.3% | viability, T/C [6] 61.9% | viability, T/C [7] 50% | viability, T/C [8] 47% | viability, T/C (second compound 1 µM, first compound 0.000316 µM) 70% | viability, T/C (second compound 1 µM, first compound 0.001 µM) 71.1% | viability, T/C [9] 66.4% | viability, T/C [10] 62.3% | viability, T/C [11] 53.8% | viability, T/C [12] 41.8% | viability, T/C (second compound 3.16 µM, first compound 0.000316 µM) 76.1% | viability, T/C (second compound 3.16 µM, first compound 0.001 µM) 73.1% | viability, T/C [13] 63.9% | viability, T/C [14] 63.1% | viability, T/C [15] 48.6% | viability, T/C [16] 49.2% | viability, T/C (second compound 10 µM, first compound 0.000316 µM) 64.1% | viability, T/C (second compound 10 µM, first compound 0.001 µM) 68% | viability, T/C [17] 64% | viability, T/C [18] 60.4% | viability, T/C [19] 47% | viability, T/C [20] 50%
37.8 nM: IC50 (second compound 0.1 µM)
52.3 nM: IC50 (second compound 0.316 µM)
59.8 nM: IC50 (second compound 10 µM)

NS(=O)(=O)OCC1CC(n2ccc3c(NC4CCc5ccccc54)ncnc32)CC1O (stereo not given) + NC1CC1c1ccc(-c2cccc(O)c2)cc1
300 nM: IC50 (second compound 3.16 µM)
inactive: viability, T/C [21] 97.7% | viability, T/C [22] 101% | viability, T/C [23] 95.1% | viability, T/C [24] 53.2% | viability, T/C [25] 12.4% | viability, T/C [26] 12% | viability, T/C [27] 84.6% | viability, T/C [28] 84.8% | viability, T/C [29] 76% | viability, T/C [30] 42.7% | viability, T/C [31] 12.5% | viability, T/C [32] 11.9% | viability, T/C [33] 95.6% | viability, T/C [34] 77.8% | viability, T/C [35] 84.8% | viability, T/C [36] 49.9% | viability, T/C [37] 11.3% | viability, T/C [39] 88.9% | viability, T/C [40] 93.6% | viability, T/C [41] 86.4% | viability, T/C [42] 50.3% | viability, T/C [43] 12.2% | viability, T/C [45] 74.8% | viability, T/C [46] 86.4% | viability, T/C [47] 80.1% | viability, T/C [48] 52.6% | viability, T/C [49] 19.7% | viability, T/C [50] 12.4%
327 nM: IC50 (second compound 0.1 µM)
230 nM: IC50 (second compound 0.316 µM)
299 nM: IC50 (second compound 1 µM)
active: viability, T/C [38] 9.03% | viability, T/C [44] 9.8%
334 nM: IC50 (second compound 10 µM)

O=C(C=Cc1cccc(S(=O)(=O)Nc2ccccc2)c1)NO + NC1CC1c1ccc(-c2cccc(O)c2)cc1
111 nM: IC50 (second compound 0.316 µM)
active: viability, T/C [26] 3.13% | viability, T/C [32] 2.23% | viability, T/C [38] 1.65% | viability, T/C [44] 1.52% | viability, T/C [50] 2.48%
106 nM: IC50 (second compound 3.16 µM)
87.4 nM: IC50 (second compound 1 µM)
inactive: viability, T/C [21] 84.3% | viability, T/C [22] 75.3% | viability, T/C [23] 59.1% | viability, T/C [24] 36.2% | viability, T/C [25] 24.5% | viability, T/C [27] 69% | viability, T/C [28] 64.2% | viability, T/C [29] 52.6% | viability, T/C [30] 34.6% | viability, T/C [31] 21.9% | viability, T/C [33] 62.6% | viability, T/C [34] 55.4% | viability, T/C [35] 50.5% | viability, T/C [36] 37.2% | viability, T/C [37] 20.1% | viability, T/C [39] 64.2% | viability, T/C [40] 65.9% | viability, T/C [41] 50% | viability, T/C [42] 34.4% | viability, T/C [43] 23.6% | viability, T/C [45] 57.7% | viability, T/C [46] 47.1% | viability, T/C [47] 40.1% | viability, T/C [48] 34.9% | viability, T/C [49] 24.6%
160 nM: IC50 (second compound 0.1 µM)
29.5 nM: IC50 (second compound 10 µM)

Source: PubChem BioAssay AID1918935 (Molecular Pharmacology Branch, DTP, NCI, 2023)
